Like-named read-outs stand apart in the source and are kept apart here. One block for each compound: values may come before it.
How the values were obtained:
[1] = molecular target: T1, purified bovine brain PI 3-kinase (Bos taurus, UniProt P32871); test: Assay of purified PI 3-kinase activity (32P incorporation into phosphatidylinositol, TLC/scintillation); format: biochemical; conditions: bovine brain purified PI 3-kinase
T1 construct: PI 3-kinase was prepared from bovine brain; from tissue; host or cells: bovine brain
Method: In another, preferred, method, PI 3-kinase was prepared from bovine brain. Two bovine brains (wet weight about 900 g) were obtained from a local slaughterhouse within minutes of slaughter, packed on ice, and homogenized within one hour. Brains were trimmed of excess fat and blood vessels and then homogenized using a Tekmar Tissuemizer (Cincinnati, Ohio) at 4° C. in 20 mM of Tris(pH 8.3) containing 250 mM of sucrose, 6 mM of β-mercaptoethanol, 1 μg/ml of leupeptin, 1 μg/ml of pepstatin A, 0.4 mM of PMSF, and 1 mM of MgCl2.
Following centrifugation for 60 minutes at 10,000×g, the DH of the supernatant (about 1200 mL) was lowered to 5.75 using dropwise addition of 1M acetic acid at 4° C. After stirring for an additional 15 minutes at 4° C., the solution was centrifuged for 60 minutes at 13,500×g. The supernatant was discarded. Pellets were resuspended in Buffer A (20 mM of Tris, pH 8.3, containing 6 mM of β-mercaptoethanol, 0.1 mM of ethylene glycol-bis(β-aminoethyl ether) N,N,N',N'-tetraacetic acid (EGTA), 1 μg/mL of leupeptin, 1 μg/mL of pepstatin A, and 1 mM of MgCl2), and loaded onto a Fast Flow Q Sepharose column (300 ml) at a flow rate of 5 mL/min at 4° C. After loading, the column was washed with 3 volumes of Buffer A containing 0.1M of KCl and the kinase was then eluted with a linear gradient of Buffer A/0.1M KCl to Buffer A/O.6M KCl at 3 mL/min over 7 volumes.
Fractions were assayed for PI 3-kinase activity using 10 μL of the fraction and phosphatidylinositol as substrate as described below. […] The PI 3-kinase pool was subjected to a 40% ammonium sulfate precipitation. Following centrifugation (60 minutes at 13,500×g), pellets were resuspended in Buffer B (10 mM of potassium phosphate, pH 7.4, containing 6 mM of β-mercaptoethanol, 1 μg/mL of leupeptin, 1 μg/mL of pepstatin A, and 1 mM of MgCl2), and loaded onto a 50 mL hydroxylapatite column (Calbiochem, Inc., La Jolla, Calif.) at 2.5 mL/minute. The column was washed with 150 mL Buffer B until the A280 baseline reached zero, and the kinase was then eluted with a linear gradient of 10-320 mM of KH2 PO4 at 1 mL/minute over 450 minutes.
Active fractions were pooled and then loaded at 3 mL/minute onto a MonoS column (8 ml) (Pharmacia, Inc., Piscataway, N.J.) equilibrated in Buffer C (50 mM of MES, pH 6.2, containing 6 mM of β-mercaptoethanol, 0.1 mM of EGTA, 1 μg/mL of leupeptin, 1 μg/mL of pepstatin A, and 1 mM of MgCl2). PI 3-kinase was eluted with a linear gradient of 0-0.4M KCl in Buffer C over 120 minutes. […] Therefore, the MonoS flow-through was concentrated by tangential flow filtration on a Mini-Ultrasette Omega 50 K membrane (Filtron, Inc., Northborough, Mass.) and diluted in Buffer C to lower the conductivity. The material was then reloaded onto the MonoS column using the above conditions. […] Two pools of phosphatidylinositol kinase activity were obtained in the gradient; each was assayed for PI 3-kinase and PI 4-kinase activity.
Pool I from the MonoS column was diluted with Buffer A and chromatographed on MonoQ (1 ml) and ehted with a gradient of 0-0.4M KCl in Buffer A. The final pool was assayed for PI 3-kinase and PI 4-kinase activity.
PI 3-kinase activity was measured as previously described by Matter, W. F., et al., Biochemical and Biophysical Research Communications, 186:624-631 (1992).

[2] = system: PI 4-kinase; test: Effect on PI 4-kinase; format: biochemical
[3] = molecular target: c-src protein tyrosine kinase (Homo sapiens, UniProt P12931); test: Effect on c-src protein tyrosine kinase; format: biochemical
[4] = system: phospholipase C; test: Effect on phospholipase C; format: biochemical
[5] = system: PI 3-kinase in v-sis NIH 3T3 cells; test: Assay of whole cell PI 3-kinase activity (PDGF-stimulated phosphatidylinositol-3-phosphate formation); format: cell-based; conditions: 1.3 μM, 100 ng/mL PDGF, 10 min contact before stimulation
Method: The cells were washed with phosphate-free DMEM and incubated in the same medium containing 0.1% fatty acid free bovine serum, albumin and 0.15 mCi/mL [^32 P]H3 PO4 (ICN Biomedicals, Irvine, Calif.) for 70 minutes. Inhibitor candidates were prepared using the above-stated procedure, and placed in contact with the cells for 10 minutes prior to their stimulation. The cells were stimulated with 100 ng/mL of PDGF for 10 minutes. To measure phosphatidylinositol-3-phosphates in the cells, the medium was removed and the cells washed once with phosphate buffered saline before adding 4 mL/flask of HCl:methanol (1:1 by volume). The cells were scraped from the flasks and total lipids were extracted by the method described by Folch, J., et al., J. Biol. Chem., 226:497-509 (1957). Deacylated lipids were prepared using methylamine via the method described by Clark, N. G., et al., BioChem J., 195: 301-306, (1981), and separated by HPLC using a 10 cm RAC II Partisil 5 SAX column (Whatman, Kent, U.K.) eluted with an NH4 H2 PO4 gradient at a flow of 0.8 mL/minute as described by Auger, K. R., et al., Methods in Inositide Research, pp. 159-166 [Irvine, R. F., Ed., Raven Press, Ltd., New York, N.Y. (1990)]. Detection of the eluting peaks was by a radioactive flow detector (Flo-One Beta, Model A515, Radiomatic Instruments, Meriden, Conn.). […]

[6] = system: protein kinase C; test: Effect on protein kinase C; format: biochemical
[7] = system: PI 3-kinase; conditions: Matter, et al.; cited from earlier work
[8] = system: protein kinase C; conditions: Matter, et al.; cited from earlier work
[9] = system: PI 4-kinase; conditions: Matter, et al.; cited from earlier work
[10] = IC50 (ng/mL), 10 min preincubation, 20 μM ATP, 3% DMSO
[11] = IC50, molar value in parentheses, value printed in parentheses beside ng/mL
[12] = 10 min preincubation, 20 μM ATP, 3% DMSO, read-out: IC50 (ng/mL) (converted)

T1 sequence (P32871 whole entry): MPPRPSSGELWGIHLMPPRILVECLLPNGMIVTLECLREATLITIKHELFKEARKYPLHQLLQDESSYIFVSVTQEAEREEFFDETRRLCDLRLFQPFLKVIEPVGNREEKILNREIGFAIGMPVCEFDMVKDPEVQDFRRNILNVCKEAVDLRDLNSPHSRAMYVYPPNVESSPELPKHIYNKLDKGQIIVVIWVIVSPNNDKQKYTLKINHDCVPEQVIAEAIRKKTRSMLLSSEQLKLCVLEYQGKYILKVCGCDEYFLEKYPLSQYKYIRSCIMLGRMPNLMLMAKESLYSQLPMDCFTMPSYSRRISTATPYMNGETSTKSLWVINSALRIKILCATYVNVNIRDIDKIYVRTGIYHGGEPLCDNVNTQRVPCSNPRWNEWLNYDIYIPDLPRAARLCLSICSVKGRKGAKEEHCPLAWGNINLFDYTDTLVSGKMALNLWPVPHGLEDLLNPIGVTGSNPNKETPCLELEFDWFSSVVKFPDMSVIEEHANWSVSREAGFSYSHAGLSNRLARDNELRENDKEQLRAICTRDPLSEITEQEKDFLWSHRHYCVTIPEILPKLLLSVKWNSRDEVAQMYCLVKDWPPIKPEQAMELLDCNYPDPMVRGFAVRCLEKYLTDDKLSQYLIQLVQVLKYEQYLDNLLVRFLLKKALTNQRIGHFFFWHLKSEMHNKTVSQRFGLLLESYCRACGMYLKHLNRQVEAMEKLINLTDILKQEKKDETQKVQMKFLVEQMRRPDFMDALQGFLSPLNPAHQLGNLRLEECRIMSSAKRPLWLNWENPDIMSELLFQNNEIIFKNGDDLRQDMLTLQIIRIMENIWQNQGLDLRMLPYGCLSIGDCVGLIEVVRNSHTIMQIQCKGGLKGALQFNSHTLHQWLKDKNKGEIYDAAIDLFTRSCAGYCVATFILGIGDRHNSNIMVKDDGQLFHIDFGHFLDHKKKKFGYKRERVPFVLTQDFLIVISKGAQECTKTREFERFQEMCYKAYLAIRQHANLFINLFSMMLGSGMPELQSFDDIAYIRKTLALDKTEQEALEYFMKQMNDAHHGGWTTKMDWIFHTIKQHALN
T1 sequence (P23727 whole entry partner): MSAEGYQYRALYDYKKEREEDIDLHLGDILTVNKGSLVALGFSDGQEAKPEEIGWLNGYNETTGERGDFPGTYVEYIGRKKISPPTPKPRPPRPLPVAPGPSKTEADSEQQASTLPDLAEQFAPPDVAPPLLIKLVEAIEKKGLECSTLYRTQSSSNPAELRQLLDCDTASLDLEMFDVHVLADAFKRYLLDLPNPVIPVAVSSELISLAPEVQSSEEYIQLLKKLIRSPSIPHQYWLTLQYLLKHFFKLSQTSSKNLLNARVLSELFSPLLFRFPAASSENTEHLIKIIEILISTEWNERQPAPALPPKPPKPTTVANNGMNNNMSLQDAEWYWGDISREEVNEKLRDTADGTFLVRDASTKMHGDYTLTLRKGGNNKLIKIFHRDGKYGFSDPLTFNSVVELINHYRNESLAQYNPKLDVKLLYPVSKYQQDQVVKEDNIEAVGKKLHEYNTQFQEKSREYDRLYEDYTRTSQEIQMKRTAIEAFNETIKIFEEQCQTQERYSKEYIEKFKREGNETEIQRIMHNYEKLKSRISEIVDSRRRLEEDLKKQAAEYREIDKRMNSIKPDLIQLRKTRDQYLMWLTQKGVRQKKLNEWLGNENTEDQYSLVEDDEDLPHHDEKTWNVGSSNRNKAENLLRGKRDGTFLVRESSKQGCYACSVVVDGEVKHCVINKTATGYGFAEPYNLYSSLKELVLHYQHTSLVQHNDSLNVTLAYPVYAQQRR
Chain of c-src protein tyrosine kinase (P12931 whole entry): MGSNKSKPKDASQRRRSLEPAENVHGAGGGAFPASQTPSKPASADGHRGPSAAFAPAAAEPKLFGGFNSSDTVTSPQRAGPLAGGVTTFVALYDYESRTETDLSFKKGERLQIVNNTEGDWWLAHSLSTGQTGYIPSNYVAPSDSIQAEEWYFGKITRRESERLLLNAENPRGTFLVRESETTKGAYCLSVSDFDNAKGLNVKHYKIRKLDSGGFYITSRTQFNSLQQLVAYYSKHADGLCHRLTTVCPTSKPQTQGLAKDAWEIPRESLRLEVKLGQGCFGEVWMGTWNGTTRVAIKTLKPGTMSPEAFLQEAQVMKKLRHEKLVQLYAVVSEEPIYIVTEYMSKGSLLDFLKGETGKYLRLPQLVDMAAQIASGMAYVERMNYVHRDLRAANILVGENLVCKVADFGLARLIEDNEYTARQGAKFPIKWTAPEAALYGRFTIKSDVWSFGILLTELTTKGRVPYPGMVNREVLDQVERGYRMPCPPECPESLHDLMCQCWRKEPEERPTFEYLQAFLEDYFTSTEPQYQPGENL

SMILES: COC[C@H]1OC(=O)c2coc3c2[C@@]1(C)C1=CC[C@]2(C)C(=O)CC[C@H]2[C@@H]1C3=O [II, Δ9,11-dehydrodesacetoxywortmannin]
IC50 [1, 10]: 54 nM
IC50 [1, 11]: 59 nM

IC50 [1, 12]: 4600 nM
SMILES: COC(=O)c1coc2c(O)c3c(c(C)c12)C=C[C@]1(C)C(=O)CC[C@@H]31 [IIIb, opened A-ring methyl ester of wortmannin]

SMILES: COC[C@H]1OC(=O)c2coc3c2[C@@]1(C)C1=C(C3=O)[C@@H]2CCC(=O)[C@@]2(C)C[C@H]1OC(C)=O [Ia, wortmannin]
IC50 [1, 10]: 4.2 nM
IC50 [1, 11]: 4.2 nM
effect on PI 4-kinase [2]: no effect
effect on c-src protein tyrosine kinase [3]: no effect
effect on phospholipase C [4]: no effect
inhibition of platelet derived growth factor stimulated phosphatidylinositol-3-phosphate formation in whole cells [5]: almost complete inhibition
effect on protein kinase C [6]: no effect

SMILES: COC[C@H]1OC(=O)c2coc3c2[C@@]1(C)C1=C(C3=O)[C@@H]2CCC(=O)[C@@]2(C)CC1 [Ib, 11-desacetoxywortmannin]
IC50 [1, 12]: 16.7 nM
IC50 ([1]; value printed in parentheses beside ng/mL, read-out: IC50, molar value in parentheses): 16.7 nM

SMILES: O=c1c(O)c(-c2ccc(O)c(O)c2)oc2cc(O)cc(O)c12 [quercetin]
inhibition of PI 3-kinase [7]: inhibit
inhibition of protein kinase C [8]: inhibit
inhibition of PI 4-kinase [9]: inhibit

— patent US5378725A, “Inhibition of phosphatidylinositol 3-kinase with wortmannin and analogs thereof” (The Arizona Board of Regents, priority 1993, dated 1995)
